From patent US20140323757A1, “Biosurfactant Isolated from Yeast” (Gyeongbuk Institute of Marine Bio-industry, priority 2013, published 2014)

assay: Surface tension measurement; assay type: physicochemical; design: unit not given here; conditions: at 1.5 mg/L
From the text: Surface tension is increased in proportion to molecular interaction, and hydrocarbons or organic polymers show low surface tension due to their weak molecular interaction. Surface tension is represented by N/m. Since surfactants have hydrophobic and hydrophilic groups, when added to water, its surface tension is lowered. […] The compounds represented by […]

Row | SMILES | Surface Tension
1 | CCCCCC(=O)OC1C(O)C(O)C(O)C(OC(=O)CCCCC)C1OC(=O)CCCCC (centres unmarked) [Compound A57-4-gly-4] | 25.28
2 | CCCCCC(=O)OC1C(O)C(O)C(O)C(OC(=O)CCCCC)C1OC(C)=O (centres unmarked) [Compound A57-4-gly-3] | 28.71
3 | CCCCCC(=O)OC1C(O)C(O)C(O)C(O)C1OC(=O)CCCCC (single isomer, unassigned) [Compound A57-4-gly-5] | 22.44
4 | CCCCCC(=O)OC1C(O)C(O)C(O)C(OC(C)=O)C1OC(=O)CCCCC (centres unmarked) [Compound A57-4-gly-1] | 22.90
5 | CCCCCC(=O)OC1C(O)C(O)C(O)C(O)C1OC(=O)CCCCC (single isomer, unassigned) [Compound A57-4-gly-2] | 22.40
